# Source: patent US7579329B2, “P450RAI-2 (P450 cytochrome 26B), encoding nucleic acid molecules and methods and uses thereof” (Cytochroma Inc., priority 1999, dated 2009)
# Assays:
# P450RAI-2 = biological target: T1, P450RAI-2 (Homo sapiens, UniProt Q9NR63); experiment: Competitive inhibition of [3H]all-trans-RA metabolism in COS-1 cells transfected with pcDNA3.1-P450RAI-2; format: cell-based; parameters: The full-length human P450RAI-2 cDNA was cloned into the eukaryotic expression vector pcDNA 3.1; expressed in transfected cells; host or cells: COS-1 (African green monkey kidney), transient; details: COS-1 cells expressing P450RAI-2, 2 nM [3H]all-trans-RA
# T1 sequence (Q9NR63 1-512): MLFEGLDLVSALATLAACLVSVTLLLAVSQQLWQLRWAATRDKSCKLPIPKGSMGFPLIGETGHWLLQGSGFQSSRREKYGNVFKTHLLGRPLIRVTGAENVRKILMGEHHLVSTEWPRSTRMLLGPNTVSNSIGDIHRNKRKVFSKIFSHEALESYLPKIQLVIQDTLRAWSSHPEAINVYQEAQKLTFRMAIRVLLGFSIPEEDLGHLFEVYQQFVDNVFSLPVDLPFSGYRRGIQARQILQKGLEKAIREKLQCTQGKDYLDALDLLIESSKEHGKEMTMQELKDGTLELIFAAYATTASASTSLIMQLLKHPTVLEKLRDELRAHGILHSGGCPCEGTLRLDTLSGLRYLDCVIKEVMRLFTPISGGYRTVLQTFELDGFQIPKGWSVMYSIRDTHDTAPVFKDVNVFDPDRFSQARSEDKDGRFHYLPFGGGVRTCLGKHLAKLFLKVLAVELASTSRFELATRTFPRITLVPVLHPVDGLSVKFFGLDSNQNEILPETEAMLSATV
# Text: COS-1 cells were transfected with either pcDNA3.1-P450RAI-1 or pcDNA3.1-P450RAI-2 in 6-well tissue culture plates as described above.
# P450RAI-1 = biological target: T2, P450RAI-1 (Homo sapiens, UniProt O43174); experiment: Competitive inhibition of [3H]all-trans-RA metabolism in COS-1 cells transfected with pcDNA3.1-P450RAI-1; format: cell-based; parameters: expressed in transfected cells; host or cells: COS-1 (African green monkey kidney), transient; details: COS-1 cells expressing P450RAI-1, 2 nM [3H]all-trans-RA
# T2 sequence (O43174 1-497): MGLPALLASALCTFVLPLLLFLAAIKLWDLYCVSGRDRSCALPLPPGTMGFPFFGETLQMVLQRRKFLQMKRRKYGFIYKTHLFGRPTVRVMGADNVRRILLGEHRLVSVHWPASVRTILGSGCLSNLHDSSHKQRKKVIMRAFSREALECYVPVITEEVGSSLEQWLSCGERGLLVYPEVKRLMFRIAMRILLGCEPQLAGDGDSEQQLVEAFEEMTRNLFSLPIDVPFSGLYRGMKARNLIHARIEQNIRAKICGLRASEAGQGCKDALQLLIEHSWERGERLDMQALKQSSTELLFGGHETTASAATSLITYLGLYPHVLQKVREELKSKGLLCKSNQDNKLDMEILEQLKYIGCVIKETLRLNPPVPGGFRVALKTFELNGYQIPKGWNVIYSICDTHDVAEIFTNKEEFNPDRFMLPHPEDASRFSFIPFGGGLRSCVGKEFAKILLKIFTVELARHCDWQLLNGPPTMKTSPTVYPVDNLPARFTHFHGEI
# Method: COS-1 cells were transfected with either pcDNA3.1-P450RAI-1 or pcDNA3.1-P450RAI-2 in 6-well tissue culture plates as described above. 48 hours post-transfection cells were harvested, pooled, washed with DMEM medium and replated into duplicate 48-well plates with 5×10^5 cells per well.
# P450RAI-2 transcripts = experiment: Induction of P450RAI-2 transcripts in human cell lines (Northern blot, RT-PCR); format: cell-based; details: MCF-7 cells, 10^-6 M retinoid, 12 hours, northern blot
# Text: HPK1a-ras (ras-transformed human keratinocyte), COS-1 (African green monkey kidney and V79 cells (Chinese Hamster lung) were maintained in DMEM supplemented with 10% FBS (5% for V79). WTE (human non-small cell lung carcinoma and SW900 (human non-small cell lung carcinoma) cells were maintained in RPMI supplemented with 10% FBS. SK-Luci-6 (human non-small cell lung carcinoma) and SK-MES-1 (human non-small cell lung carcinoma) cells in RPMI with 5% FBS. NB4 (human acute prmyelocytic leukemia-serived) cells were maintained in RPMI supplemented with 10% FBS and gentamicin ([…]) HeLa cells (human cervical carcinoma) were maintained in MEM supplemented with 10% FBS. Previous cell lines were supplemented with penicillin (50 units/ml) streptomycin (50 ug/ml) and fungizone (0.1% final concentration). MCF-7 cells (human breast epithelial adenocarcinoma) were grown in MEM supplemented with 10% FBS, insulin (10 ng/ml), sodium pyruvate (0.5 mM), non-essential amino acids (100 nM), L-glutamine (2 mM), penicillin (5 ug.ml), streptomycin (5 ug/ml), fungizone (200 ng/ml), and gentamicin ([…]). All reagents were supplied by Life Technologies, NY. Cells lines were maintained at 37° C. in an atmosphere of 5% CO2 and 95% air.
# Gels were photographed under ultraviolet light and then blotted onto Hybond ECL nitrocellulose membrane (Amersham Pharmacia Biotech, UK) and fixed to the membrane by baking at 80° C. for 2 hours under vacuum. […] Full length P450RAI-1 and P450RAI-2 cDNA were labeled with α-[^32P]dATP using Prime-A-Gene Labeling System (Promega, WI). The blot was washed two times for 15 minutes in 2×SSC, 0.1% SDS at room temperature then for 15 minutes at 60° C. in 0.1×SSC, and 0.1% SDS and exposed at −70° C. for 19 hours to Kodak X-Omat AR film (Eastman Kodak Company, NY).
# The regulation of P450RAI-2 expression by various retinoids was checked in three different human cell lines, SKMES, CALU-1 and MCF-7. […] The blot was washed as follows: 2×SSPE & 0.1% SDS two washes of 5 minutes each; 1×SSPE & 0.1% SDS one wash of 15 minutes at 65° C.; 0.1×SSPE & 0.1×SDS one wash of 15 minutes at 65° C.
# The blot was washed as follows: 2×SSC & 0.1% SDS two washes of 5 minutes each at room temperature; 1×SSC & 0.1% SDS one wash of 15 minutes at 65° C.; 0.1×SSC & 0.1% SDS three washes of 15 minutes each at 65° C.
# The blot was washed as follows: 2×SSPE & 0.1% SDS two washes of 5 minutes each; 1×SSPE & 0.1% SDS one wash of 15 minutes at 65° C.; 0.1×SSPE & 0.1×SDS one wash of 15 minutes at 65° C.
# The final primer concentrations were 45 μM for the P450RAI-2 primers and 11.25 μM for the GAPDH-specific primers.
# CYP26B (P450RAI-2) = biological target: T3, CYP26B (P450RAI-2) (Homo sapiens, UniProt Q9NR63); experiment: [3H]-RA-metabolism inhibition assay using microsomes from Hela-CYP26B (stable) cells; details: 5 μg microsomes, NADPH, 1 hour at 37° C., water-soluble metabolites
# T3 sequence (Q9NR63 1-512): T1 sequence (Q9NR63 1-512)
# Method: [^3H]-RA-metabolism inhibition assay was carried outusing microsomes prepared from Hela-CYP26B (stable) cells. […] The reaction was started by adding NADPH for 1 hour at 37° C. and then total reinoids were extracted using Bligh-Dyer procedure and water-soluble metabolites counted. […] Ketoconazol is an inhibitor of CYP26B.
compound,measurement,setting,value
"CC1=C(/C=C/C(C)=C/C=C/C(C)=C\C(=O)O)C(C)(C)CCC1 [13-cis-RA, 13-cis retinoic acid]",Effectiveness as competitor of all-trans-RA metabolism,P450RAI-2,less effective than all-trans-RA
same,Effectiveness as competitor of all-trans-RA metabolism,P450RAI-1,less effective than all-trans-RA
same,Induction of P450RAI-2 expression,P450RAI-2 transcripts,induced
same,Competition of [3H]-RA metabolism in microsomes,CYP26B (P450RAI-2),did not compete at lower concentrations
